Data published in patent publication US20100286247A1, “Methods of Protection from Oxidative Stress” (Trustees of Boston University, priority 2005, published 2010).
{P} = phosphate

Assays:
phospho-p53 (Ser-15) = experiment: Western blot of activated p53 (serine-15 phosphorylation); format: cell-based, human; settings: by 36-48 hours, sustained through 72 hours; 40 μM TO, 100 μM pTT
Experimental: (§1) Western blot analysis of proteins from cells treated and harvested in parallel with DCF time course studies was conducted as described above. Membranes were reacted with antibodies to total p53/DO-1 (1:1000 dilution, Oncogene Research Products, Cambridge, Mass.), anti-phoso-p53 (Ser-15) (1:1000 dilution, Cell Signaling Technology, Beverly, Mass.), and p21/Cip1/Waf1 (1:500 dilution, Transduction Laboratories, Lexington, Ky.), followed by appropriate secondary antibodies diluted 1:2000.

p21/Cip1/Waf1 protein = experiment: Western blot of p21/Cip1/Waf1; format: cell-based, human; settings: by 36-48 hours, sustained through 72 hours; 40 μM TO, 100 μM pTT
Experimental: as §1

total p53 protein = settings: 40 μM, published reports; cited from earlier work
human dermal fibroblasts = settings: treatment for 7 days, Li et al.; cited from earlier work
tumor formation = settings: nude mice repeatedly exposed to solar simulated UV; cited from earlier work
[1] = tested on: neonatal foreskin fibroblasts; experiment: Hydrogen peroxide oxidative challenge, cell yields
Experimental: Early passage neonatal foreskin fibroblasts were passed to 100 mm dishes and pretreated 24 hours after passage with 100 μM pTT or diluent control. […] For each experiment fresh H2O2 solutions were made in DMEM. The H2O2 and control DMEM solutions were made and sterilized through 0.45 μm syringe filters immediately before treatment. After the one-hour treatment with H2O2 or diluent control, fresh medium was provided. Cells were harvested at later timepoints by a brief washing in 1× EDTA, followed by trypsinization at 37° C. Cell yields were determined using the Coulter Z cell counter.
The hydrogen peroxide oxidative challenge assay data were generated with the combined results of four separate experiments. The averages for each treatment condition and timepoint studied (8, 24, 48, and 72 hours) were used to calculate the percent of adherent H2O2 treated cells relative to diluent-treated cells. Changes in cell yield were determined as a function of time using General Linear Model with repeated measure analysis (SPSS Version 10).
After 72 hours of pretreatment with either 100 μM pTT or diluent control, the same number of cells were replated with fresh 10% CS DMEM lacking pTT. The following day they were exposed to a dose of 25 μM H2O2 or DMEM control for 1 hour, and cell yields were determined at 8, 24, 48 and 72 hours following the H2O2 treatment.
Newborn fibroblasts cells were plated in DMEM supplemented with 10% CS. Forty-eight hours after plating, cells were provided fresh medium. Twenty-four hours later, cells were provided fresh medium containing 40 μM of p[sequence] (abbreviated as TO, SEQ ID NO: 1) or diluent as a control. Seventy-two hours later, cells were harvested and replated in fresh medium lacking oligonucleotides. Twenty-four hours later, cells were provided fresh H2O2 (25 μM) or diluent for 1 hour and then provided fresh DMEM with 10% CS. Cell yield was then measured in TO-pre-treated cultures as well as control cultures.

SOD2 mRNA = experiment: Northern blot analysis of antioxidant enzyme mRNA: SOD2; format: cell-based, human; settings: 100 μM pTT, 8-72 hours, three donors
Experimental: (§2) Cell culture followed previously published methods.^92 Primary human newborn dermal fibroblasts were cultured from neonatal circumcised foreskin specimens. The skin samples were treated overnight in a 0.25% trypsin solution at 4° C. to separate the epidermis from the dermis. The separated dermis was then cut into pieces and plated onto etched plastic tissue culture dishes. Primary culture medium consisted of DMEM supplemented with 10% bovine CS, 50 U/ml penicillin and 50 μg/ml streptomycin sulfate. […] Secondary culture medium consisted of DMEM supplemented with 10% CS.
(§3) Purified 5′-phosphorylated thymidine dinucleotides (pTT) (Midland Certified Reagents, Inc., Texas) purified by gel filtration and analyzed by mass spectroscopy, were obtained in lyophilized form. […] The stock solution was syringe filter-sterilized through a 0.2 μm pore filter and spectrophotometrically analyzed (absorbance at 260 and 280 nm) to determine the concentration, and frozen in aliquots at −20° C. […]
(§4) Cells were harvested in Trizol (Gibco BRL, Gaithersburg, Md.) and stored at −70° C. […] RNA solutions were measured by spectrophotometer readings at 260 nm and 280 nm to determine concentration and purity. […]
(§5) Northern and western films as well as stained membranes and pictures of ethidium bromide-stained gels were digitally scanned and analyzed by densitometry. […]

CAT mRNA = experiment: Northern blot analysis of antioxidant enzyme mRNA: CAT; format: cell-based, human; settings: 100 μM pTT, 8-72 hours
Experimental: as §2, §3, §4, §5

[2] = tested on: primary human newborn dermal fibroblasts; experiment: MTS viability assay; format: cell-based; settings: 100 μM pTT
Excerpt: The CellTiter 96 Aqueous One Solution Cell Proliferation Assay, a version of the MTT assay, (Promega Corp., Madison, Wis.) is generally used as a eukaryotic cell viability and proliferation assay.^180 It has also been used to measure mitochondrial dysfunction,^181 because the assay measures the reduction of a tetrazolium compound [3-(4,5-dimethylthiazol-2-yl)-5-(-3-carboxymethoxyphenyl)-2-(4-sulfophenyl)-2H-tetrazolium] to formazan in viable mitochondria. The MTS assay utilizes a water-soluble form of the tetrazolium reagent in the original MIT assay. The formazan product is measured by absorbance at 492 nm.
Equal numbers of cells were seeded into 96-well tissue culture plates, and paired wells were treated once with pTT or diluent control as described above. At 24, 48 and 72 hours cell viability was assayed using the MTS assay and an ELIZA plate reader (Tecan Spectra II Model F039002, Austria) to measure absorbance at 492 nm. The experiments were conducted in parallel with cell yield Coulter counts, using the same donor cells.
Cell yields of pTT-treated fibroblasts were compared to diluent using 2-way ANOVA and a total of four different experiments, to identify significant difference between treatment groups as a function of cell number and time. The parallel MTS assay also utilized the 2-way ANOVA, to compare changes in OD at 492 nm as a function of time and treatment modality.

[3] = 100 μM pTT, in vitro and in mouse models in vivo; cited from earlier work

| Substance | phospho-p53-ser15 response, TO vs pTT (phospho-p53 (Ser-15)) | p21 protein response, TO vs pTT (p21/Cip1/Waf1 protein) | time to p53 induction (total p53 protein) [h] | cells expressing senescence-associated-β-galactosidase after prolonged treatment (human dermal fibroblasts) | incidence of tumor formation (tumor formation) | resistance to H2O2 measured by total cell yield ([1]; 40 μM TO 72 hours pretreatment, 25 μM H2O2 1 hour, up to 48 hours) | cells surviving oxidative challenge by H2O2 (cell yield as percent of own diluent control) ([1]; 40 μM TO pretreatment, 25 μM H2O2, non-treated control 52%) [%] | SOD2 mRNA level compared to diluent (SOD2 mRNA) | CAT mRNA level compared to diluent (CAT mRNA) | cell viability (MTS formazan absorbance) vs diluent ([2]; 24-72 hours, 2-way ANOVA p=0.2588) | mitochondrial reductive activity per cell (MTS absorbance per Coulter-counted cell) ([2]; p=0.0093) | nucleotide excision DNA repair and UV resistance [3] | cell yields over time following exposure to H2O2 vs diluent pretreated ([1]; 100 μM pTT 72 hours pretreatment, 25 μM H2O2 1 hour, p=0.0008) | cell yields at 8 hours after H2O2 treatment vs diluent-pretreated ([1]; 100 μM pTT pretreatment, 25 μM H2O2) | higher relative cell yields (percentage of respective H2O2 controls) vs diluent-pretreated ([1]; 100 μM pTT pretreatment, 24 and 48 hours after 25 μM H2O2) [%] |
| --- | --- | --- | --- | --- | --- | --- | --- | --- | --- | --- | --- | --- | --- | --- | --- |
| pGTTAGGGTTAG (5' {P}, sugars by position and backbone not given here) [TO] | greater than to pTT | greater than to pTT | ≤ 8 | over 60% | decreased the incidence of tumor formation | increased resistance to H2O2 | 75 | – | – | – | – | – | – | – | – |
| 5′-phosphorylated thymidine dinucleotides [pTT] | – | – | – | – | – | – | – | no difference between pTT- and diluent-treated cells | remain unchanged | no significant decrease in cell viability | significant increase in mitochondrial reductive activity per cell | stimulates enhanced nucleotide excision DNA repair and resistance to subsequent UV irradiation | higher cell yields | lower cell yields than in the diluent-pretreated group | 10 |
